Non-standard residues stand in square brackets, D forms with d. Residues, ends and D or L forms follow the SMILES beside them. ξ: configuration not given here. *: point of attachment. ξF = NC(Cc1ccccc1)C(=O)O; Cbz = O=C(OCc1ccccc1)*; NHOH = ON*
Molecular target: T1, Thermolysin (Bacillus thermoproteolyticus, UniProt P00800)
T1 sequence (P00800 whole entry): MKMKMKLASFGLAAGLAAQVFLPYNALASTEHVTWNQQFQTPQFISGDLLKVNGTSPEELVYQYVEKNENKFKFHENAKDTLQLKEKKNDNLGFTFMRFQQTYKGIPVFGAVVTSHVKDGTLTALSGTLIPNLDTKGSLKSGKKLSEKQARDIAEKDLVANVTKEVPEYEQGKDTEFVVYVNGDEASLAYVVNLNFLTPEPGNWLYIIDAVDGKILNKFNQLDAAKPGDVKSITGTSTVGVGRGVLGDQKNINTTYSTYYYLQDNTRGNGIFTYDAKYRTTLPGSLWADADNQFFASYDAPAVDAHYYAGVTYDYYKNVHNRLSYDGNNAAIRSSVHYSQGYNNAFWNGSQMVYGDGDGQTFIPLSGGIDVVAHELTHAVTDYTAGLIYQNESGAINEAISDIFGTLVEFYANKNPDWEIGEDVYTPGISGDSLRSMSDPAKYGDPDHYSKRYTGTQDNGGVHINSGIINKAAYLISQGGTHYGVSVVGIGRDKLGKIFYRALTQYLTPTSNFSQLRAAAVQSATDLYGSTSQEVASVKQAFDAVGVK
Assay: pKi value expresses binding affinity against thermolysin pKi = -logKi (where Ki is in mol/L)

Compound | Ki [µM] | pKi
C[C@H](NC(=O)[C@H](C)NP(=O)(O)O)C(=O)O | 87.1 | –
C[C@H](C(=O)NO)C(=O)N[C@@H](C)C(=O)NCC(N)=O | 1100 | –
CC(C)C[C@H](NC(=O)CNC(=O)OCc1ccccc1)C(N)=O | 20900 | –
C[C@H](NC(=O)[C@H](Cc1ccccc1)NS(=O)(=O)O)C(=O)NCC(N)=O | 4270 | –
C[C@H](NC(=O)[C@H](Cc1ccccc1)NP(=O)(O)S)C(=O)NCC(N)=O (some centres not stated) | 6.92 | –
C[C@H](NC(=O)[C@H](Cc1ccccc1)C(=O)NO)C(=O)NCC(=O)O | 0.661 | –
CC(C)C[C@H](C(=O)NO)C(=O)N[C@@H](C)C(=O)NCC(N)=O | 0.479 | –
C[C@H](NC(=O)[C@H](Cc1ccccc1)NC(=O)CO)C(=O)NCC(N)=O | 2880 | –
C[C@H](NC(=O)[C@H](Cc1ccccc1)C(=O)NO)C(=O)NCC(N)=O | 0.661 | –
CC(C)C[C@H](NC(=O)CNC(=O)CNC(=O)OCc1ccccc1)C(=O)NO | 38.9 | –
CC(=O)CC(=O)N[C@@H](Cc1ccccc1)C(=O)N[C@@H](C)C(=O)NCC(N)=O | 3090 | –
C[C@H](NC(=O)[C@@H](CS)Cc1ccccc1)C(=O)NCC(N)=O | 0.759 | –
C[C@H](NC(=O)[C@H](Cc1ccccc1)C(=O)O)C(=O)NCC(N)=O | 417 | –
CC(C)C[C@@H](C(=O)N[C@@H](C)C(=O)NCC(N)=O)N(O)C=O | 3390 | –
CC(C)C[C@H](NC(=O)CNC(=O)OCc1ccccc1)C(=O)NO | 12.9 | –
CC[C@H](C)[C@H](NP(=O)(O)O)C(=O)N[C@@H](C)C(=O)O | 0.363 | –
O=C(NC(Cc1ccccc1)C(=O)O)OCc1ccccc1 (configuration not stated) | 513 | –
CC(=O)N(O)[C@@H](CC(C)C)C(=O)N[C@@H](C)C(=O)NCC(N)=O | 3390 | –
CC(C)CC(OP(=O)(O)CNC(=O)OCc1ccccc1)C(=O)NC(C)C(=O)O (configuration not stated) | 12.9 | –
CC(C)CC(OP(=O)(O)C(Cc1ccccc1)NC(=O)OCc1ccccc1)C(=O)NC(C)C(=O)O (configuration not stated) | 0.0447 | –
CC(C)CC(NC(CCc1cccc(CN)c1)C(=O)O)C(=O)NC(Cc1ccccc1)C(=O)O (configuration not stated) | 1.7 | –
CC(C)CC(NC(=O)CNC(=O)OCc1ccccc1)C(=O)N(C)O (configuration not stated) | 2240 | –
CC(C)CC(OP(=O)(O)C(C)NC(=O)OCc1ccccc1)C(=O)NC(C)C(=O)O (configuration not stated) | 1.82 | –
CC(C)CC(NC(CCNC(=O)C(Cc1ccccc1)NC(=O)OCc1ccccc1)C(=O)O)C(=O)NC(Cc1ccccc1)C(=O)O (configuration not stated) | 0.219 | –

Compound | Ki [µM] | pKi
CC(C)CC(NC(C)C(=O)O)C(=O)NC(Cc1ccccc1)C(=O)O (configuration not stated) | 2.82 | –
CC(C)CC(NC(CCc1ccccc1)C(=O)O)C(=O)NC(Cc1ccccc1)C(=O)O (configuration not stated) | 0.603 | –
CC(C)CC(NP(=O)(O)CNC(=O)OCc1ccccc1)C(N)=O (configuration not stated) | 0.759 | –
CC(C)C[C@@H](NC(=O)CNC(=O)OCc1ccccc1)C(=O)NO | 47.9 | –
CCCCCCP(=O)(O)CC(CC(C)C)C(=O)NC(Cc1c[nH]c2ccccc12)C(=O)NC (configuration not stated) | 0.0525 | –
CC(C)CC(CP(=O)(O)CNC(=O)OCc1ccccc1)C(=O)NCC(=O)O (configuration not stated) | 0.302 | –
CC(C)CC(NP(=O)(O)CNC(=O)OCc1ccccc1)C(=O)NC(Cc1ccccc1)C(=O)O (configuration not stated) | 0.0759 | –
CC(C)CC(OP(=O)(O)[C@@H](Cc1ccccc1)NC(=O)OCc1ccccc1)C(=O)NC(C)C(=O)O (some centres not stated) | 30.2 | –
CC(C)CC(OP(=O)(O)CNC(=O)OCc1ccccc1)C(N)=O (configuration not stated) | 661 | –
CC(C)C[C@H](NC(CCc1ccccc1)C(=O)O)C(=O)N[C@@H](Cc1c[nH]c2ccccc12)C(=O)O (some centres not stated) | 0.0339 | –
CC(C)CC(NP(=O)(O)[C@@H](Cc1ccccc1)NC(=O)OCc1ccccc1)C(=O)NC(C)C(=O)O (some centres not stated) | 0.479 | –
O=C(O)CC(=O)NC(CS)Cc1ccccc1 (configuration not stated) | 2.29 | –
CC(C)CC(OP(=O)(O)CNC(=O)OCc1ccccc1)C(=O)NC(Cc1ccccc1)C(=O)O (configuration not stated) | 53.7 | –
CCCCCCP(=O)(O)NC(CC(C)C)C(=O)NC(Cc1c[nH]c2ccccc12)C(=O)NC (configuration not stated) | 0.00151 | –
CC(C)CC(OP(=O)(O)[C@@H](CC(C)C)NC(=O)OCc1ccccc1)C(=O)NC(C)C(=O)O (some centres not stated) | 41.7 | –
CC(C)CC(CP(=O)(O)CNC(=O)OCc1ccccc1)C(=O)NC(C)C(=O)O (configuration not stated) | 0.0186 | –
CC(C)CC(OP(=O)(O)[C@@H](C)NC(=O)OCc1ccccc1)C(=O)NC(C)C(=O)O (some centres not stated) | 24 | –
CC(C)CC(NP(=O)(O)O)C(N)=O (configuration not stated) | 79.4 | –
CC(NC(=O)C(Cc1ccccc1)NP(=O)(O)O)C(=O)NCC(N)=O (configuration not stated) | 2.57 | –
CC(C)CC(NC(CCNC(=O)C(C)NC(=O)OCc1ccccc1)C(=O)O)C(=O)NC(Cc1ccccc1)C(=O)O (configuration not stated) | 0.851 | –
CC(C)CC(OP(=O)(O)C(CC(C)C)NC(=O)OCc1ccccc1)C(=O)NC(C)C(=O)O (configuration not stated) | 0.676 | –
CC(C)CC(NP(=O)(O)OC1OC(C)C(O)C(O)C1O)C(=O)NC(Cc1c[nH]c2ccccc12)C(=O)O (configuration not stated) | 0.0282 | –
CCCCCCP(=O)(O)OC(CC(C)C)C(=O)NC(Cc1c[nH]c2ccccc12)C(=O)NC (configuration not stated) | 1.45 | –
CC(C)CC(NC(CCNC(=O)C(Cc1ccccc1)NC(=O)OCc1ccccc1)C(=O)O)C(=O)NC(Cc1c[nH]c2ccccc12)C(=O)O (configuration not stated) | 0.011 | –

Compound | Ki [µM] | pKi
CC(C)CC(CP(=O)(O)CNC(=O)OCc1ccccc1)C(=O)NC(CC(C)C)C(=O)O (configuration not stated) | 0.182 | –
O=C(O)C(Cc1ccccc1)NP(=O)(O)O (configuration not stated) | 72.4 | –
CC(C)CC(NP(=O)(O)O)C(=O)NC(Cc1ccccc1)C(=O)O (configuration not stated) | 0.0191 | –
CC(C)CC(NC(=O)NNC(=O)OCc1ccccc1)C(=O)NO (configuration not stated) | 2.69 | –
CC(C)CC(N)C(=O)NO (configuration not stated) | 191 | –
CC(C)C[C@@H](NC(=O)CNC(=O)CNC(=O)OCc1ccccc1)C(=O)NO | – | 3.6
CCOC(=O)C(Cc1ccccc1)C(=O)NO (configuration not stated) | 20 | –
CC(C)CC(NC(=O)C(CC(C)C)OP(=O)(O)CNC(=O)OCc1ccccc1)C(=O)O (configuration not stated) | 8.91 | –
CC(C)CC(OP(=O)(O)CNC(=O)OCc1ccccc1)C(=O)NCC(=O)O (configuration not stated) | 229 | –
CC(C)CC(NP(=O)(O)CNC(=O)OCc1ccccc1)C(=O)NCC(=O)O (configuration not stated) | 0.269 | –
CCCCC(NC(CC(C)C)C(=O)NC(Cc1ccccc1)C(=O)O)C(=O)O (configuration not stated) | 3800 | –
CC(C)CC(NC(=O)C(CC(C)C)NP(=O)(O)CNC(=O)OCc1ccccc1)C(=O)O (configuration not stated) | 0.00912 | –
CC(C)CC(NP(=O)(O)CNC(=O)OCc1ccccc1)C(=O)NC(C)C(=O)O (configuration not stated) | 0.0166 | –
O=C(CCc1ccccc1)NC(Cc1ccccc1)C(=O)O (configuration not stated) | 1620 | –
CC(C)CC(NC(CCNC(=O)CNC(=O)OCc1ccccc1)C(=O)O)C(=O)NC(Cc1ccccc1)C(=O)O (configuration not stated) | 0.407 | –
CC(C)CC(NP(=O)(O)C(Cc1ccccc1)NC(=O)OCc1ccccc1)C(=O)NC(C)C(=O)O (configuration not stated) | 6.76e-05 | –
CC(C)CC(CP(=O)(O)CNC(=O)OCc1ccccc1)C(=O)NC(Cc1ccccc1)C(=O)O (configuration not stated) | 0.0661 | –
CC(C)CC(CP(=O)(O)CNC(=O)OCc1ccccc1)C(N)=O (configuration not stated) | 1.41 | –
CC(C)CC(NC(=O)NNC(=O)OCc1ccccc1)C(N)=O (configuration not stated) | 380 | –
CC(NC(=O)C(Cc1ccccc1)C(=O)NO)C(=O)NCC(=O)Nc1ccc([N+](=O)[O-])cc1 (configuration not stated) | 0.427 | –
NC(=O)CNC(=O)C(Cc1ccc(O)cc1)NC(=O)OCc1ccccc1 (configuration not stated) | 219 | –
O=C(CNC(=O)CNC(=O)OCc1ccccc1)NO (Cbz-Gly-Gly-{NHOH}) | 933 | –
CC(C)C[C@H](NC(=O)OCc1ccccc1)C(=O)NCC(N)=O (Cbz-Leu-Gly-NH2) | 3090 | –
NC(=O)CNC(=O)C(Cc1ccccc1)NC(=O)OCc1ccccc1 (configuration not stated) (Cbz-[ξF]-Gly-NH2) | 347 | –
